# Publication PMC8333425, “Discovery of a dual Ras and ARF6 inhibitor from a GPCR endocytosis screen” (Nature Communications, 2021)
# Values joined by “and” are separate entries in the source; they are usually repeats but may differ in a detail not shown here. Equal entries are not always repeated.
# Key:
# [1] = system: β-arrestin2 recruitment to AT1R; assay: BRET recruitment of β-arrestin2 to AT1R; type: cell-based, human; conditions: for AngII-promoted BRET, β-arrestin2 (Barr2) recruitment to AT1R: Comp 21 50 μM, individual experiments
# Description: (§1) HEK293SL cells were seeded at a density of 7.5 × 10^5 cells per 100-mm dish and 24 h later, transiently transfected as such. For receptor internalization experiments, cells were transfected with 0.12 μg AT1R-RlucII, B2R-RlucII, or β2AR-RlucII and 0.48 μg of either rGFP-CAAX (to assess removal from the PM) or rGFP-FYVE (to assess accumulation in the endosomes). For β-arrestin recruitment assays, cells were transfected with 0.48 μg of receptor-YFP along with 0.12 μg of β-arrestin-RlucII. For β-arrestin/AP-2 binding experiments, cells were transfected with 1 μg Flag-AT1R, 1 μg β2-Adaptin-YFP, and 0.12 μg β-arrestin2-RlucII. For G protein activation, cells were transfected with 3 μg of sp-Flag-AT1R along with either 4.5 μg of the Gαq-polycistronic BRET sensor or 0.24 μg of the Gαi3-RlucII and 0.6 μg of GFP10-Gγ2 and Gβ1 sensors or 0.12 μg PKN-RBD-RlucII and 0.48 μg of rGFP-CAAX. For PKC activation, cells were transfected with 3 μg of sp-Flag-AT1R and 0.18 μg of the PKC sensor. For GTPase activation experiments, cells were transfected with 1 μg Flag-AT1R, 0.48 μg of rGFP-CAAX, and either 0.12 μg of GGA3-PBD-RlucII, PAK-CRIB-RlucII or Raf-RBD-RlucII. For biosensor validation experiments, cells were additionally transfected with 500 ng Flag-K-Ras-WT, Flag-K-Ras-G12V, Flag-K-Ras-SOS-CAAX, HA-ARF6-WT, HA-ARF6-T27N, Myc-Rac1-WT, Myc-Rac1-Q61L or Myc-Rac1-T17N. For PI3K/Akt activation experiments, cells were transfected with 0.48 μg of rGFP-CAAX and 0.12 μg of Akt (PH)-RlucII. After 18 h of transfection, the media was replaced and cells were divided for subsequent experiments. Cells were detached and seeded onto poly-L-ornithine-coated 96-well flat white bottom plates (BrandTech Scientific) at a density of 2.5 × 10^4 cells per well in media. The next day, cells were washed once with Tyrode’s buffer (140 mM NaCl, 2.7 mM KCl, 1 mM CaCl2, 12 mM NaHCO3, 5.6 mM D-glucose, 0.5 mM MgCl2, 0.37 mM NaH2PO4, 25 mM HEPES, pH 7.4) and left in Tyrode’s buffer. For kinetics of β-arrestin recruitment or β-arrestin binding to receptor and AP-2 experiments, cells were serum starved for 30 min, pretreated with 21 (50 µM) or Barbadin (100 µM) for 30 min, stimulated with 100 nM AngII or 1 µM BK and BRET signals were monitored at indicated times using a Victor X Light plate reader (PerkinElmer). Coelenterazine H (final concentration of 5 µM) was added 3–5 min prior to BRET measurements. Filter set was 460/80 nm and 535/30 nm for detecting the RlucII Renilla luciferase (donor) and YFP (acceptor) light emissions, respectively. The BRET ratio was determined by calculating the ratio of the light emitted by YFP over the light emitted by the RlucII. For G protein activation, cells were serum starved, pretreated with compounds for 30 min, stimulated with 100 nM AngII for 2 min (Gαq, Gαi3, and Rho sensors) or 5 min (PKC sensor). For the kinetics of GTPase and PI3K/Akt activation, cells were serum starved, pretreated with 21 (50 µM) or Wortmannin (200 nM) for 30 min, stimulated with ligand (100 nM AngII or 100 ng/ml EGF) and BRET signals were monitored at indicated times. For concentration-response curves, cells were serum-starved, pretreated with various concentrations of compounds for 30 min and stimulated with ligand (100 nM AngII, 1 µM BK, 10 µM Isoproterenol (Iso) or 100 ng/ml EGF) in Tyrode’s buffer for 30 min for receptor internalization, 10 min for ARF6, 2 min for Rac and Rho activation and 5 min for Ras activation and PI3K/Akt activation. BRET signals were monitored using a Synergy2 (BioTek) microplate reader and coelenterazine 400a (final concentrations of 5 µM) added 3–5 min prior to BRET measurements. Filter set was 410/80 nm and 515/30 nm for detecting the RlucII Renilla luciferase (donor) and rGFP/GFP10 (acceptor) light emissions, respectively. The BRET ratio was determined by calculating the ratio of the light emitted by rGFP/GFP10 over the light emitted by the RlucII.
# Rho = Rho BRET sensor (PKN-RBD-RlucII / rGFP-CAAX; Gα12/13), AT1R-mediated; type: cell-based, human
# Description: as §1
smiles,measurement,setting,value
CC(C)C(=O)N1CCN(c2ccc(NC(=O)c3cc4ccccc4o3)cc2Cl)CC1 [Compound 21],β-arrestin2 recruitment to AT1R at the PM,[1]; 50 μM,did not preclude
same,"AngII-promoted BRET, β-arrestin2 (Barr2) recruitment to AT1R",[1]; time 0 min,0
same,"AngII-promoted BRET, β-arrestin2 (Barr2) recruitment to AT1R",[1]; time 5 min,0.1545 and 0.1824 and 0.1119
same,"AngII-promoted BRET, β-arrestin2 (Barr2) recruitment to AT1R",[1]; time 10 min,0.1572 and 0.2061 and 0.1651
same,"AngII-promoted BRET, β-arrestin2 (Barr2) recruitment to AT1R",[1]; time 15 min,0.1598 and 0.2035 and 0.1848
same,"AngII-promoted BRET, β-arrestin2 (Barr2) recruitment to AT1R",[1]; time 30 min,0.165 and 0.1904 and 0.1659
same,"AngII-promoted BRET, β-arrestin2 (Barr2) recruitment to AT1R",[1]; time 60 min,0.1705 and 0.209 and 0.1941
same,Gα12/13 engagement by AT1R (BRET sensor),Rho; 50 μM,lack of inhibitory effects
same,Rho MEAN (Fig.4d),Rho; Log [Comp 21] (M) -4,111.903
same,Rho MEAN (Fig.4d),Rho; Log [Comp21] (M) -4.3,104.855
same,Rho MEAN (Fig.4d),Rho; Log [Comp21] (M) -5,98.5192
same,Rho MEAN (Fig.4d),Rho; Log [Comp21] (M) -5.3,89.4095
same,Rho MEAN (Fig.4d),Rho; Log [Comp 21] (M) -6,96.851
same,Rho MEAN (Fig.4d),Rho; Log [Comp21] (M) -6.3,103.786
same,Rho MEAN (Fig.4d),Rho; Log [Comp 21] (M) -7,100.394
same,"Rho BRET sensor signal (S_Fig.4b), single experiments",Rho; listed as Comp 21,0.2652 and 0.266 and 0.2953
same,AT1R-mediated activation of a Rho BRET sensor,Rho; up to 100 µM of 21,did not inhibit
